Where two headings read alike, the source gives them in different places.
Target: T1, Cbl-b (truncated variant, UniProt number Q13191) (Homo sapiens, UniProt Q13191)
T1 construct: made in house
Experiment: Cbl-b activity assay (TR-FRET, interaction of Cbl-b with UbcH5B-Ub)
Assay type: biochemical

[1] = high conditions: 100 mM NaCl, 60 nM Src kinase, 12 nM Cbl-b, read-out: Cbl-b activity IC50
[2] = Biological Example 1A, low or high conditions not stated, read-out: IC50 values in the Cbl-b inhibition assay of Biological Example 1A

T1 sequence (Q13191 36-427): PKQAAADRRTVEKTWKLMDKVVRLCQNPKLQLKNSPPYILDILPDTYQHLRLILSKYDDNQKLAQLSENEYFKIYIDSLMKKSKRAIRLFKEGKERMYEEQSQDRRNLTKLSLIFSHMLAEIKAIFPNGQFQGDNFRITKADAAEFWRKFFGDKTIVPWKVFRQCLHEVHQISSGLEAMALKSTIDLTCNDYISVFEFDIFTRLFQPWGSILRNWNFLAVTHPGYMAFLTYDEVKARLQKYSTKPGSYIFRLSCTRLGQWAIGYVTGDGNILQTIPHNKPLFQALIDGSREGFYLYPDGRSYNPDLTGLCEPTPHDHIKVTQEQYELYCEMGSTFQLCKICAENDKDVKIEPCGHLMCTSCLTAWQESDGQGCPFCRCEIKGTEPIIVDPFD

| Structure (SMILES) | IC50 [1] | IC50 [2] | IC50 (low conditions: 50 mM NaCl, 30 nM Src kinase, 12 nM Cbl-b, read-out: Cbl-b activity IC50) |
| --- | --- | --- | --- |
| C[C@H](Cc1nncn1C)c1cccc(-c2n[nH]c3c(N4CC(O)C4)cc(C(F)(F)F)nc23)c1 [Example 110, (R)-1-(3-(3-(1-(4-methyl-4H-1,2,4-triazol-3-yl)propan-2-yl)phenyl)-5-(trifluoromethyl)-1H-pyrazolo[4,3-b]pyridin-7-yl)azetidin-3-ol] | 0.1 to 1 µM |  |  |
| C[C@H](Cc1nncn1C)c1cccc(-c2n[nH]c3c(N4CC[C@H](O)C4)cc(C(F)(F)F)nc23)c1 [Example 111, (S)-1-(3-(3-((R)-1-(4-methyl-4H-1,2,4-triazol-3-yl)propan-2-yl)phenyl)-5-(trifluoromethyl)-1H-pyrazolo[4,3-b]pyridin-7-yl)pyrrolidin-3-ol] | 0.1 to 1 µM |  |  |
| C[C@H](Cc1nncn1C)c1cccc(-c2n[nH]c3c(N4CC[C@@H](O)C4)cc(C(F)(F)F)nc23)c1 [Example 112, (R)-1-(3-(3-((R)-1-(4-methyl-4H-1,2,4-triazol-3-yl)propan-2-yl)phenyl)-5-(trifluoromethyl)-1H-pyrazolo[4,3-b]pyridin-7-yl)pyrrolidin-3-ol] | 0.1 to 1 µM |  |  |
| C[C@H](Cc1nncn1C)c1cccc(-c2n[nH]c3c(CN4CC[C@H](F)C4)cc(C(F)(F)F)nc23)c1 [Example 113, 3-[(2R)-2-[3-(7-[[(3S)-3-fluoropyrrolidin-1-yl]methyl]-5-(trifluoromethyl)-1H-pyrazolo[4,3-b]pyridin-3-yl)phenyl]propyl]-4-methyl-4H-1,2,4-triazole] | < 0.1 µM | < 0.1 µM |  |
| C[C@H](Cc1nncn1C)c1cccc(-c2n[nH]c3ccc(C(F)(F)F)nc23)c1 [Example 116, (R)-3-(3-(1-(4-methyl-4H-1,2,4-triazol-3-yl)propan-2-yl)phenyl)-5-(trifluoromethyl)-1H-pyrazolo[4,3-b]pyridine] | 0.1 to 1 µM | 0.1 to 1 µM |  |
| C[C@H](Cc1nncn1C)c1cccc(-c2n[nH]c3c(N4CCC(O)CC4)ccnc23)c1 [Example 117, (R)-1-(3-(3-(1-(4-methyl-4H-1,2,4-triazol-3-yl)propan-2-yl)phenyl)-1H-pyrazolo[4,3-b]pyridin-7-yl)piperidin-4-ol] | 1 to 5 µM |  |  |
| C[C@H](Cc1nncn1C)c1cccc(-c2n[nH]c3cccnc23)c1 [Example 118, (R)-3-(3-(1-(4-methyl-4H-1,2,4-triazol-3-yl)propan-2-yl)phenyl)-1H-pyrazolo[4,3-b]pyridine] | 1 to 5 µM |  |  |
| Cc1ccc2[nH]nc(-c3cccc([C@H](C)Cc4nncn4C)c3)c2n1 [Example 119, (R)-5-methyl-3-(3-(1-(4-methyl-4H-1,2,4-triazol-3-yl)propan-2-yl)phenyl)-1H-pyrazolo [4,3-b]pyridine] | 1 to 5 µM |  |  |
| C[C@H](Cc1nncn1C)c1cccc(-c2n[nH]c3cc(C4CCC4)cnc23)c1 [Example 120, (R)-6-cyclobutyl-3-(3-(1-(4-methyl-4H-1,2,4-triazol-3-yl)propan-2-yl)phenyl)-1H-pyrazolo[4,3-b]pyridine] | 1 to 5 µM |  |  |
| C[C@H](Sc1nncn1C)c1ccnc(NC(=O)Nc2ccccn2)c1 [Example 121, (S)-1-(4-(1-((4-methyl-4H-1,2,4-triazol-3-yl)thio)ethyl)pyridin-2-yl)-3-(pyridin-2-yl)urea] | ≥ 5 µM |  |  |
| CC(Sc1nncn1C)c1cccc(C(=O)Nc2cc3ccccc3cn2)c1 (stereo not shown) [Example 122, N-(isoquinolin-3-yl)-3-(1-((4-methyl-4H-1,2,4-triazol-3-yl)thio)ethyl)benzamide] |  | < 0.1 µM | < 0.1 µM |
| CC1CN(C(=O)Nc2cccc([C@H](C)Sc3nncn3C)c2)CC(=O)N1C (stereo partly drawn) [Example 123, 3,4-dimethyl-N-(3-((S)-1-((4-methyl-4H-1,2,4-triazol-3-yl)thio)ethyl)phenyl)-5-oxopiperazine-1-carboxamide] | ≥ 5 µM |  |  |
| C[C@H](Sc1nncn1C)c1cccc(NC(=O)N2CCC23CCN(C)CC3)c1 [Example 126, (S)-7-methyl-N-(3-(1-((4-methyl-4H-1,2,4-triazol-3-yl)thio)ethyl)phenyl)-1,7-diazaspiro[3.5]nonane-1-carboxamide] | ≥ 5 µM |  |  |
| C[C@H](Sc1nncn1C)c1cccc(NC(=O)N2CCC(c3ccccc3)C2)c1 (stereo partly drawn) [Example 127, N-(3-((S)-1-((4-methyl-4H-1,2,4-triazol-3-yl)thio)ethyl)phenyl)-3-phenylpyrrolidine-1-carboxamide] | ≥ 5 µM |  |  |
| C[C@H](Sc1nncn1C)c1cccc(NC(=O)NC2CCCN(c3cccnn3)C2)c1 (stereo partly drawn) [Example 129, 1-(3-((S)-1-((4-methyl-4H-1,2,4-triazol-3-yl)thio)ethyl)phenyl)-3-(1-(pyridazin-3-yl)piperidin-3-yl)urea] | ≥ 5 µM |  |  |
| C[C@H](Sc1nncn1C)c1cccc(NC(=O)N2CCC23CCOC3)c1 (stereo partly drawn) [Example 130, N-(3-((S)-1-((4-methyl-4H-1,2,4-triazol-3-yl)thio)ethyl)phenyl)-6-oxa-1-azaspiro[3.4]octane-1-carboxamide] | ≥ 5 µM |  |  |
| C[C@H](Sc1nncn1C)c1cccc(NC(=O)N2CC3(CCC3O)C2)c1 (stereo partly drawn) [Example 133, 5-hydroxy-N-(3-((S)-1-((4-methyl-4H-1,2,4-triazol-3-yl)thio)ethyl)phenyl)-2-azaspiro[3.3]heptane-2-carboxamide] | ≥ 5 µM |  |  |

Continued, values first:

| IC50 [1] | IC50 [2] | IC50 (low conditions: 50 mM NaCl, 30 nM Src kinase, 12 nM Cbl-b, read-out: Cbl-b activity IC50) | Structure (SMILES) |
| --- | --- | --- | --- |
| ≥ 5 µM |  |  | C[C@H](Sc1nncn1C)c1cccc(NC(=O)N2CCCCC2)c1 [Example 124, (S)—N-(3-(1-((4-methyl-4H-1,2,4-triazol-3-yl)thio)ethyl)phenyl)piperidine-1-carboxamide] |
| ≥ 5 µM |  |  | C[C@H](Sc1nncn1C)c1cccc(NC(=O)N2CCc3nocc3C2)c1 [Example 125, (S)—N-(3-(1-((4-methyl-4H-1,2,4-triazol-3-yl)thio)ethyl)phenyl)-6,7-dihydroisoxazolo[4,3-c]pyridine-5(4H)-carboxamide] |
| ≥ 5 µM |  |  | C[C@H](Sc1nncn1C)c1cccc(NC(=O)N2CCOCC2)c1 [Example 128, N-[3-[(1S)-1-[(4-methyl-4H-1,2,4-triazol-3-yl)sulfanyl]ethyl]phenyl]morpholine-4-carboxamide] |
| ≥ 5 µM |  |  | C[C@H](Sc1nncn1C)c1cccc(NC(=O)N2CCOC(CC(F)(F)F)C2)c1 (stereo partly drawn) [Example 131, N-(3-((S)-1-((4-methyl-4H-1,2,4-triazol-3-yl)thio)ethyl)phenyl)-2-(2,2,2-trifluoroethyl)morpholine-4-carboxamide] |
| ≥ 5 µM |  |  | C[C@H](Sc1nncn1C)c1cccc(NC(=O)N2CC(C)(F)C2)c1 [Example 132, 3-fluoro-3-methyl-N-[3-[(1S)-1-[(4-methyl-4H-1,2,4-triazol-3-yl)sulfanyl]ethyl]phenyl]azetidine-1-carboxamide] |
| ≥ 5 µM |  |  | C[C@H](Sc1nncn1C)c1cccc(NC(=O)N2CC(S(C)(=O)=O)C2)c1 [Example 134, 3-methanesulfonyl-N-[3-[(1S)-1-[(4-methyl-4H-1,2,4-triazol-3-yl)sulfanyl]ethyl]phenyl]azetidine-1-carboxamide] |
| ≥ 5 µM |  |  | C[C@H](Sc1nncn1C)c1cccc(NC(=O)N2CCO[C@H]([C@H]3CCCO3)C2)c1 [Example 135, (S)—N-(3-((S)-1-((4-methyl-4H-1,2,4-triazol-3-yl)thio)ethyl)phenyl)-2-((R)-tetrahydrofuran-2-yl)morpholine-4-carboxamide] |
| ≥ 5 µM |  |  | C[C@H](Sc1nncn1C)c1cccc(NC(=O)N2CCO[C@@H]([C@H]3CCCO3)C2)c1 [Example 136, (R)—N-(3-((S)-1-((4-methyl-4H-1,2,4-triazol-3-yl)thio)ethyl)phenyl)-2-((R)-tetrahydrofuran-2-yl)morpholine-4-carboxamide] |

Source: patent US12653809B2, “Urea, amide, and substituted heteroaryl compounds for CBL-B inhibition” (Nurix Therapeutics, Inc., priority 2019, dated 2026)
